Laboratory results as given in the CheMixHub drug solubility set.

Assay: xn = mol fraction of the nth substance listed, in the solute-free solvent

Cc1[nH]c(=O)c(C#N)cc1-c1ccncc1 + CCO + O
solubility (g/100 g solution)
Details | 278.15 K | 283.15 K | 288.15 K | 293.15 K | 298.15 K | 303.15 K | 308.15 K | 313.15 K | 318.15 K | 323.15 K
x2 = 0.04165 | 0.000675 | 0.000813 | 0.000966 | 0.00114 | 0.00133 | 0.00153 | 0.00174 | 0.00198 | 0.00224 | 0.00254
x2 = 0.08908 | 0.000855 | 0.00103 | 0.00123 | 0.00144 | 0.00169 | 0.00194 | 0.00221 | 0.00251 | 0.00285 | 0.00321
x2 = 0.1436 | 0.00114 | 0.00138 | 0.00163 | 0.00192 | 0.00225 | 0.00258 | 0.00294 | 0.00333 | 0.00377 | 0.00426
x2 = 0.2068 | 0.00154 | 0.00186 | 0.00221 | 0.00259 | 0.00303 | 0.00348 | 0.00395 | 0.00447 | 0.00505 | 0.0057
x2 = 0.2812 | 0.00206 | 0.00239 | 0.00288 | 0.00338 | 0.0039 | 0.00453 | 0.00517 | 0.00586 | 0.00662 | 0.00754
x2 = 0.3698 | 0.00266 | 0.00322 | 0.00381 | 0.00446 | 0.00518 | 0.00596 | 0.00676 | 0.00763 | 0.0086 | 0.00968
x2 = 0.4772 | 0.00326 | 0.00385 | 0.00461 | 0.0054 | 0.00629 | 0.00717 | 0.00815 | 0.00921 | 0.0105 | 0.0119
x2 = 0.6101 | 0.00373 | 0.00451 | 0.0054 | 0.00637 | 0.00745 | 0.00844 | 0.00959 | 0.0108 | 0.0122 | 0.0138
x2 = 0.7788 | 0.00412 | 0.00503 | 0.00602 | 0.00705 | 0.00817 | 0.00928 | 0.0105 | 0.0119 | 0.0135 | 0.0153

Nc1cccc(S(=O)(=O)c2cccc(N)c2)c1 + CCO + O
solubility (g/100 g solution)
Details | 283.15 K | 288.15 K | 293.15 K | 298.15 K | 303.15 K | 308.15 K | 313.15 K | 318.15 K | 323.15 K | 328.15 K
x2 = 0.04165 | 0.0709 | 0.0964 | 0.128 | 0.168 | 0.215 | 0.284 | 0.356 | 0.459 | 0.577 | 0.72
x2 = 0.08908 | 0.129 | 0.173 | 0.226 | 0.3 | 0.383 | 0.491 | 0.619 | 0.788 | 0.987 | 1.23
x2 = 0.1436 | 0.209 | 0.277 | 0.357 | 0.462 | 0.591 | 0.744 | 0.941 | 1.16 | 1.45 | 1.78
x2 = 0.2068 | 0.318 | 0.41 | 0.509 | 0.646 | 0.822 | 1.02 | 1.25 | 1.51 | 1.84 | 2.24
x2 = 0.2812 | 0.455 | 0.561 | 0.706 | 0.874 | 1.07 | 1.3 | 1.56 | 1.89 | 2.26 | 2.69
x2 = 0.3698 | 0.604 | 0.732 | 0.907 | 1.11 | 1.34 | 1.64 | 1.92 | 2.33 | 2.7 | 3.21
x2 = 0.4772 | 0.76 | 0.93 | 1.14 | 1.34 | 1.62 | 1.92 | 2.28 | 2.69 | 3.15 | 3.7
x2 = 0.6101 | 0.914 | 1.09 | 1.31 | 1.55 | 1.88 | 2.19 | 2.57 | 3.03 | 3.51 | 4.06
x2 = 0.7788 | 1.1 | 1.29 | 1.52 | 1.79 | 2.08 | 2.43 | 2.81 | 3.25 | 3.75 | 4.28

S=c1[nH]ncs1 + CCO + O
solubility (g/100 g solution)
Details | 278.15 K | 283.15 K | 288.15 K | 293.15 K | 298.15 K | 303.15 K | 308.15 K | 313.15 K | 318.15 K | 323.15 K
x2 = 0.1 | 0.653 | 0.91 | 1.26 | 1.71 | 2.24 | 2.97 | 3.91 | 5.01 | 6.49 | 7.94
x2 = 0.2 | 1.93 | 2.6 | 3.27 | 4.16 | 5.3 | 6.67 | 8.34 | 10.5 | 12.8 | 15.2
x2 = 0.3 | 3.54 | 4.46 | 5.7 | 7.08 | 8.6 | 10.7 | 12.9 | 15.5 | 18.5 | 21.9
x2 = 0.4 | 5.21 | 6.58 | 8.06 | 9.53 | 11.3 | 13.6 | 16.1 | 18.9 | 22.3 | 26
x2 = 0.5 | 6.64 | 8 | 9.61 | 11.3 | 13.3 | 15.6 | 18.1 | 21.1 | 24.5 | 28.1
x2 = 0.6 | 7.53 | 8.92 | 10.7 | 12.4 | 14.4 | 16.5 | 19.2 | 22.3 | 25.4 | 28.5
x2 = 0.7 | 8.26 | 9.5 | 11.2 | 13.1 | 15 | 17.1 | 19.5 | 22.4 | 25.4 | 28
x2 = 0.8 | 8.41 | 10.1 | 11.6 | 13.3 | 15 | 17.2 | 19.5 | 22.1 | 25 | 27.6
x2 = 0.9 | 8.73 | 10.2 | 11.8 | 13.3 | 15.1 | 16.9 | 19.1 | 21.6 | 23.9 | 26.6
